# According to patent US20240175029A1, “RNA INHIBITOR FOR INHIBITING HEPATITIS B VIRUS GENE EXPRESSION AND APPLICATION THEREOF” (priority 2021, published 2024):
# How the values were obtained:
# [1] = test system: HBV HBsAg; assay: Comparison and combined use of Ky-2208 and tenofovir (TDF) in HBV transgenic (HBV-Tg) mice, HBsAg; format: in vivo; settings: Ky-2208 3 or 9 mpk sc single, TDF 15 mpk po daily, d7-d28
# Experimental: Experimental procedures: 48 HBV-Tg male mice with a body weight of 25-35 g and a week age of 8-13 w, were raised in an animal room that meets the SPF standard, with a temperature of 16-26° C., a humidity of 40-70% and circulating light (12 hours in light and dark respectively), and were free to eat and drink water. The solvent for formulation of the compound was normal saline, and the concentration of the working solution was 0.75 mg/mL. […] The experiment consisted of 6 groups, including one control group ([…]) and 5 administration groups. The drug was administered once on the day of d0, and mice in each group were subcutaneously injected with 0.04 mL/10 g of the corresponding test solution on d0. Whole blood was collected through the orbital venous plexus of mice on d0 before administration and d7, d14, d21 and d28 after administration, and centrifuged at 3000×g for 5 minutes. Supernatant was sampled on d0, d7, d14, d21 and d28 to detect HBV HBsAg.
# [2] = test system: HBsAg; assay: Ky-22 combined with entecavir or interferon in HepG2.2.15 cells, HBsAg; format: cell-based, HBV; settings: 72 hours, ETV 0.1-10 μM, IFN-α 10-1000 IU/mL, Ky-22 0.125 μg/mL
# Experimental: (§1) The experiment was conducted in the widely used HepG2.2.15 cell line to evaluate the inhibitory effect of the RNA inhibitor of the present invention in combination with different concentrations of entecavir (ETV) or interferon (IFN-a) on HBV.
# (§2) Experimental procedures: DMEM medium containing 10% fetal bovine serum was prepared. Media containing 10 nM RNA inhibitor Ky-22 was prepared from a culture medium. HepG2.2.15 cells were inoculated at a cell density of […] and cultured in the DMEM medium with 10% fetal bovine serum at 37° C. under 5% CO2 for 24 hours, added with the drug for intervention, and incubated for 72 hours. The supernatant was sampled to detect HBsAg, HBeAg and HBV DNA. The relative percentages of HBsAg, HBeAg, and HBV DNA in the sample intervention groups were calibrated by compared with the supernatant of HepG2.2.15 cells without intervention.
# [3] = test system: HBeAg; assay: Ky-22 combined with entecavir or interferon in HepG2.2.15 cells, HBeAg; format: cell-based, HBV; settings: 72 hours, ETV 0.1-10 μM, IFN-α 10-1000 IU/mL, Ky-22 0.125 μg/mL
# Experimental: as §1, §2
SMILES,reduction of HBsAg level [1],inhibitory effect on HBsAg [2],inhibitory effect on HBeAg [3]
"CC(C)OC(=O)OCOP(=O)(CO[C@H](C)Cn1cnc2c(N)ncnc21)OCOC(=O)OC(C)C.O=C(O)/C=C/C(=O)O [TDF, Tenofovir]",no inhibitory effect,–,–
C=C1[C@H](CO)[C@@H](O)C[C@@H]1n1cnc2c(=O)[nH]c(N)nc21 [entecavir],–,no significant inhibitory effect,no significant inhibitory effect
"C[C@H](Cn1cnc2c(N)ncnc21)OCP(=O)(O)O [tenofovir (TDF), tenofovir]",does not have the efficacy of reducing HBsAg level,–,–
